Results from patent US20250340557A1, “PYRIMIDINE DERIVATIVE” (ASKA PHARMACEUTICAL CO., LTD., priority 2022, published 2025).

The compounds below were run against T1, human mPGES-1 (Homo sapiens, UniProt O14684) (assay: Test for mPGES-1 inhibitory activity (microsomal enzyme, PGE2 EIA)). Conditions: microsomes of COS-1 cells transfected with human mPGES-1 cDNA; PGH2 1 μM; 4° C., 4 minutes; PGE2 by EIA; read-out: h mPGES1 IC50.
T1 construct: made in house; host or cells: COS-1 cells (transient transfection; microsomal fraction used as enzyme)
T1 sequence (O14684 1-152): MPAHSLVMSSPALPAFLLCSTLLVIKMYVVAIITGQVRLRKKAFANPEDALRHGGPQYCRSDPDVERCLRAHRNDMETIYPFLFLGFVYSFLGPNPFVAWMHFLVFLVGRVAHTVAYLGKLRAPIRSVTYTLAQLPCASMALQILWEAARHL
Assay type: biochemical
Outline: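 IC50 values were derived from EIA-quantified PGE2 after a 4 min, 4 °C reaction with PGH2 at 1 μM final, stopped with ferric chloride/citric acid. Beforehand, compound (2% DMSO final) sat 15 min at 4 °C with human mPGES-1 microsomes from transiently transfected COS-1 cells. Buffer was sodium phosphate pH 7.2 containing 2.5 mM reduced glutathione and 1 mM EDTA.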

Row | IC50 [µM] | SMILES
1 | 0.0069 | Cc1nc(-c2c(C(F)(F)F)ccc(CNC(=O)[C@H]3C[C@H](OCc4ccccc4C(F)(F)F)C3)c2F)[nH]c(=O)c1F [Example 215, trans-N-[2-fluoro-3-(5-fluoro-4-methyl-6-oxo-1,6-dihydropyrimidin-2-yl)-4-(trifluoromethyl)benzyl]-3-{[2-(trifluoromethyl)benzyl]oxy}cyclobutane-1-carboxamide]
2 | 0.016 | Cc1nc(-c2c(C(F)(F)F)ccc(CNC(=O)[C@H]3C[C@H](OCc4cccc(C(F)(F)F)c4)C3)c2F)[nH]c(=O)c1F [Example 216, trans-N-[2-fluoro-3-(5-fluoro-4-methyl-6-oxo-1,6-dihydropyrimidin-2-yl)-4-(trifluoromethyl)benzyl]-3-{[3-(trifluoromethyl)benzyl]oxy}cyclobutane-1-carboxamide]
3 | 0.016 | Cc1nc(-c2c(C(F)(F)F)ccc(CNC(=O)[C@H]3C[C@H](OCc4ccc(C(F)(F)F)cc4)C3)c2F)[nH]c(=O)c1F [Example 217, trans-N-[2-fluoro-3-(5-fluoro-4-methyl-6-oxo-1,6-dihydropyrimidin-2-yl)-4-(trifluoromethyl)benzyl]-3-{[4-(trifluoromethyl)benzyl]oxy}cyclobutane-1-carboxamide]
4 | 0.013 | Cc1nc(-c2c(C(F)(F)F)ccc(CNC(=O)[C@H]3C[C@H](OCc4ccc(F)cc4F)C3)c2F)[nH]c(=O)c1F [Example 218, trans-3-[(2,4-difluorobenzyl)oxy]-N-[2-fluoro-3-(5-fluoro-4-methyl-6-oxo-1,6-dihydropyrimidin-2-yl)-4-(trifluoromethyl)benzyl]cyclobutane-1-carboxamide]
5 | 0.015 | Cc1nc(-c2c(C(F)(F)F)ccc(CNC(=O)[C@H]3C[C@H](OCc4ccc(Cl)cc4F)C3)c2F)[nH]c(=O)c1F [Example 219, trans-3-[(4-chloro-2-fluorobenzyl)oxy]-N-[2-fluoro-3-(5-fluoro-4-methyl-6-oxo-1,6-dihydropyrimidin-2-yl)-4-(trifluoromethyl)benzyl]cyclobutane-1-carboxamide]
6 | 0.015 | Cc1nc(-c2c(C(F)(F)F)ccc(CNC(=O)[C@H]3C[C@H](OCc4ccc(F)c(F)c4)C3)c2F)[nH]c(=O)c1F [Example 220, trans-3-[(3,4-difluorobenzyl)oxy]-N-[2-fluoro-3-(5-fluoro-4-methyl-6-oxo-1,6-dihydropyrimidin-2-yl)-4-(trifluoromethyl)benzyl]cyclobutane-1-carboxamide]
7 | 0.014 | Cc1nc(-c2c(C(F)(F)F)ccc(CNC(=O)[C@H]3C[C@H](OCc4cc(F)cc(F)c4)C3)c2F)[nH]c(=O)c1F [Example 221, trans-3-[(3,5-difluorobenzyl)oxy]-N-[2-fluoro-3-(5-fluoro-4-methyl-6-oxo-1,6-dihydropyrimidin-2-yl)-4-(trifluoromethyl)benzyl]cyclobutane-1-carboxamide]
8 | 0.015 | Cc1nc(-c2c(C(F)(F)F)ccc(CNC(=O)[C@H]3C[C@H](OCc4cccc(F)c4)C3)c2F)[nH]c(=O)c1F [Example 222, trans-N-[2-fluoro-3-(5-fluoro-4-methyl-6-oxo-1,6-dihydropyrimidin-2-yl)-4-(trifluoromethyl)benzyl]-3-[(3-fluorobenzyl)oxy]cyclobutane-1-carboxamide]
9 | < 0.001 | Cc1nc(-c2c(C(F)(F)F)ccc(CNC(=O)[C@H]3C[C@H](OCc4cccc(F)c4F)C3)c2F)[nH]c(=O)c1F [Example 223, trans-3-[(2,3-difluorobenzyl)oxy]-N-[2-fluoro-3-(5-fluoro-4-methyl-6-oxo-1,6-dihydropyrimidin-2-yl)-4-(trifluoromethyl)benzyl]cyclobutane-1-carboxamide]
10 | < 0.001 | Cc1nc(-c2c(C(F)(F)F)ccc(CNC(=O)[C@H]3C[C@H](OCc4ccc(F)cc4Cl)C3)c2F)[nH]c(=O)c1F [Example 224, trans-3-[(2-chloro-4-fluorobenzyl)oxy]-N-[2-fluoro-3-(5-fluoro-4-methyl-6-oxo-1,6-dihydropyrimidin-2-yl)-4-(trifluoromethyl)benzyl]cyclobutane-1-carboxamide]
11 | < 0.001 | Cc1nc(-c2c(C(F)(F)F)ccc(CNC(=O)[C@H]3C[C@H](OCc4cccc(Cl)c4F)C3)c2F)[nH]c(=O)c1F [Example 225, trans-3-[(3-chloro-2-fluorobenzyl)oxy]-N-[2-fluoro-3-(5-fluoro-4-methyl-6-oxo-1,6-dihydropyrimidin-2-yl)-4-(trifluoromethyl)benzyl]cyclobutane-1-carboxamide]
12 | < 0.001 | Cc1nc(-c2c(C(F)(F)F)ccc(CNC(=O)[C@H]3C[C@H](OCc4cc(Cl)ccc4F)C3)c2F)[nH]c(=O)c1F [Example 226, trans-3-[(5-chloro-2-fluorobenzyl)oxy]-N-[2-fluoro-3-(5-fluoro-4-methyl-6-oxo-1,6-dihydropyrimidin-2-yl)-4-(trifluoromethyl)benzyl]cyclobutane-1-carboxamide]
13 | < 0.001 | Cc1nc(-c2c(C(F)(F)F)ccc(CNC(=O)[C@H]3C[C@H](OCc4ccc(F)c(Cl)c4)C3)c2F)[nH]c(=O)c1F [Example 227, trans-3-[(3-chloro-4-fluorobenzyl)oxy]-N-[2-fluoro-3-(5-fluoro-4-methyl-6-oxo-1,6-dihydropyrimidin-2-yl)-4-(trifluoromethyl)benzyl]cyclobutane-1-carboxamide]

Further lines, the compound ahead of its results:

Row | SMILES | IC50 [µM]
14 | CCc1cc(=O)[nH]c(-c2c(C(F)(F)F)ccc(CNC(=O)[C@H]3C[C@H](OCc4cc(F)cc(F)c4)C3)c2F)n1 [Example 204, trans-3-[(3,5-difluorobenzyl)oxy]-N-[3-(4-ethyl-6-oxo-1,6-dihydropyrimidin-2-yl)-2-fluoro-4-(trifluoromethyl)benzyl]cyclobutane-1-carboxamide] | 0.013
15 | CCc1cc(=O)[nH]c(-c2c(C(F)(F)F)ccc(CNC(=O)[C@H]3C[C@H](OCc4cccc(F)c4)C3)c2F)n1 [Example 205, trans-N-[3-(4-ethyl-6-oxo-1,6-dihydropyrimidin-2-yl)-2-fluoro-4-(trifluoromethyl)benzyl]-3-[(3-fluorobenzyl)oxy]cyclobutane-1-carboxamide] | 0.014
16 | CCc1cc(=O)[nH]c(-c2c(C(F)(F)F)ccc(CNC(=O)[C@H]3C[C@H](OCc4cccc(F)c4F)C3)c2F)n1 [Example 206, trans-3-[(2,3-difluorobenzyl)oxy]-N-[3-(4-ethyl-6-oxo-1,6-dihydropyrimidin-2-yl)-2-fluoro-4-(trifluoromethyl)benzyl]cyclobutane-1-carboxamide] | 0.015
17 | CCc1cc(=O)[nH]c(-c2c(C(F)(F)F)ccc(CNC(=O)[C@H]3C[C@H](OCc4ccc(F)cc4Cl)C3)c2F)n1 [Example 207, trans-3-[(2-chloro-4-fluorobenzyl)oxy]-N-[3-(4-ethyl-6-oxo-1,6-dihydropyrimidin-2-yl)-2-fluoro-4-(trifluoromethyl)benzyl]cyclobutane-1-carboxamide] | 0.009
18 | CCc1cc(=O)[nH]c(-c2c(C(F)(F)F)ccc(CNC(=O)[C@H]3C[C@H](OCc4cccc(Cl)c4F)C3)c2F)n1 [Example 208, trans-3-[(3-chloro-2-fluorobenzyl)oxy]-N-[3-(4-ethyl-6-oxo-1,6-dihydropyrimidin-2-yl)-2-fluoro-4-(trifluoromethyl)benzyl]cyclobutane-1-carboxamide] | 0.0088
19 | CCc1cc(=O)[nH]c(-c2c(C(F)(F)F)ccc(CNC(=O)[C@H]3C[C@H](OCc4cc(Cl)ccc4F)C3)c2F)n1 [Example 209, trans-3-[(5-chloro-2-fluorobenzyl)oxy]-N-[3-(4-ethyl-6-oxo-1,6-dihydropyrimidin-2-yl)-2-fluoro-4-(trifluoromethyl)benzyl]cyclobutane-1-carboxamide] | 0.0088
20 | CCc1cc(=O)[nH]c(-c2c(C(F)(F)F)ccc(CNC(=O)[C@H]3C[C@H](OCc4ccc(F)c(Cl)c4)C3)c2F)n1 [Example 210, trans-3-[(3-chloro-4-fluorobenzyl)oxy]-N-[3-(4-ethyl-6-oxo-1,6-dihydropyrimidin-2-yl)-2-fluoro-4-(trifluoromethyl)benzyl]cyclobutane-1-carboxamide] | 0.0079
21 | CCc1cc(=O)[nH]c(-c2c(C(F)(F)F)ccc(CNC(=O)[C@H]3C[C@H](OCc4cc(F)cc(Cl)c4)C3)c2F)n1 [Example 211, trans-3-[(3-chloro-5-fluorobenzyl)oxy]-N-[3-(4-ethyl-6-oxo-1,6-dihydropyrimidin-2-yl)-2-fluoro-4-(trifluoromethyl)benzyl]cyclobutane-1-carboxamide] | 0.0093
22 | Cc1nc(-c2c(C(F)(F)F)ccc(CNC(=O)[C@H]3C[C@H](OCc4ccccc4Cl)C3)c2F)[nH]c(=O)c1F [Example 212, trans-3-[(2-chlorobenzyl)oxy]-N-[2-fluoro-3-(5-fluoro-4-methyl-6-oxo-1,6-dihydropyrimidin-2-yl)-4-(trifluoromethyl)benzyl]cyclobutane-1-carboxamide] | < 0.001
23 | Cc1nc(-c2c(C(F)(F)F)ccc(CNC(=O)[C@H]3C[C@H](OCc4cccc(Cl)c4)C3)c2F)[nH]c(=O)c1F [Example 213, trans-3-[(3-chlorobenzyl)oxy]-N-[2-fluoro-3-(5-fluoro-4-methyl-6-oxo-1,6-dihydropyrimidin-2-yl)-4-(trifluoromethyl)benzyl]cyclobutane-1-carboxamide] | 0.011
24 | Cc1nc(-c2c(C(F)(F)F)ccc(CNC(=O)[C@H]3C[C@H](OCc4ccc(Cl)cc4)C3)c2F)[nH]c(=O)c1F [Example 214, trans-3-[(4-chlorobenzyl)oxy]-N-[2-fluoro-3-(5-fluoro-4-methyl-6-oxo-1,6-dihydropyrimidin-2-yl)-4-(trifluoromethyl)benzyl]cyclobutane-1-carboxamide] | 0.0086
